Test results from patent US4415558A, “CRF And analogs” (The Salk Institute for Biological Studies, priority 1982, dated 1983).
Entries after “also recorded” stand apart in the source; their conditions may differ. [ ]: non-standard residue; d: D form. Nle = CCCC[C@H](N)C(=O)O

Key:
[1] = tested on: cultured rat pituitary cells; assay: Secretion of ACTH and β-endorphin by cultured rat pituitary cells; assay type: cell-based; conditions: for Stimulation of secretion of ACTH and β-END-LI (in words): general procedure set forth in Example III, in vitro or in vivo not specified
Procedure: (§1) The synthetic and the natural CRF were examined for their effects on the secretion of ACTH and β-endorphin in vitro and the synthetic CRF was also examined in vivo. The high potency of synthetic and natural CRF to stimulate the secretion of ACTH and β-endorphin by cultured rat pituitary cells was measured. […] The secretory response to maximal (>5 nM) concentrations of CRF is at a plateau level. In vivo doses from 30 ng to 3 μg/Kg of body weight rapidly elevated ACTH and β-endorphin-like (β-END-LI) secretions 5-20 fold.

Blood pressure in dogs = assay type: in vivo
[2] = tested on: ACTH and β-END-LI secretion; assay: ACTH and β-END-LI secretion in vivo in rat preparations
Procedure: as §1
(§2) Plasma levels of ACTH and β-END-LI are elevated for at least 5-20 minutes following the intravenous administration of CRF to nembutal-anesthesized male rats and to quiescent male or female rats with indwelling intravenous cannulae. […] Mean cartoid blood pressure in a urethane-anesthesized rat fell from 87 to 72±2 mm Hg and remained at that level for 30 minutes following an injection equal to 3 μg CRF/Kg body weight; the subsequent administration of an injection equal to 30 μg CRF/Kg body weight lowered mean blood pressure to 42±3 mm Hg for more than 2 hours.

[3] = Blood pressure in rats (mean carotid blood pressure, urethane-anesthetized rat); assay type: in vivo; conditions: for Effect upon blood pressure (in words): rats; for Lowering of blood pressure (in words): general procedure set forth in Example III
Procedure: as §2

[4] = cited from earlier work
[5] = tested on: secretion of ACTH and β-endorphin; conditions: cited from earlier work
[6] = urethane-anesthetized rat, subsequent 30 μg CRF/Kg body weight

## H-Ser-Gln-Glu-Pro-Pro-Ile-Ser-Leu-Asp-Leu-Thr-Phe-His-Leu-Leu-Arg-Glu-Val- Leu-Glu-Met-Thr-Lys-Ala-Asp-Gln-Leu-Ala-Gln-Gln-Ala-His-Ser-Asn-Arg-Lys-Leu-Leu-Asp-Ile-Ala-NH2 [synthetic CRF]
[1]; cultured rat pituitary cells
  Maximal concentrations (secretory response at a plateau level): > 5 nM
[1]; cultured rat pituitary cells, concentration giving half-maximal response
  EC50: ~0.1 nM
[1]; cultured rat pituitary cells, concentration giving minimal response
  Minimal response, secretion of ACTH and β-endorphin: about 10 picomolar
[1]
  Stimulation of ACTH and β-endorphin secretion in vitro (in words): stimulate ACTH and β-endorphin activies; also recorded: high potency
Blood pressure in dogs
  Effect upon blood pressure (in words): dramatic effect upon blood pressure
[2]
  Stimulation of ACTH and β-END-LI secretion in vivo (in words): stimulate ACTH and β-endorphin activies
[2]; in vivo doses from 30 ng to 3 μg/Kg of body weight
  Elevation of ACTH and β-endorphin-like (β-END-LI) secretions: 5-20 fold
[2]; listed as Synthetic CRF
  Stimulation of ACTH and β-END-LI secretion in vivo (in words): powerful stimulator of ACTH and β-END-LI secretion
[2]; intravenous administration, nembutal-anesthetized male rats and quiescent male or female rats with indwelling intravenous cannulae
  Time for which plasma levels of ACTH and β-END-LI are elevated: 5 to 20 min
[3]; listed as CRF
  Effect upon blood pressure (in words): dramatic effect upon blood pressure
[3]; listed as Synthetic CRF
  Effect upon blood pressure (in words): substantially lower blood pressure for an extended time period
[3]; urethane-anesthetized rat, 3 μg CRF/Kg body weight
  Time blood pressure remained at lowered level: 30 min
[3]; urethane-anesthetized rat, 3 μg CRF/Kg body weight, fell from 87
  Mean carotid blood pressure after injection: 72±2 mm Hg
[3]; [6]
  Duration of lowered mean blood pressure: more than 2 hours
  Mean blood pressure after subsequent injection: 42±3 mm Hg

## CC[C@H](C)[C@H](NC(=O)[C@H](CC(=O)O)NC(=O)[C@H](CC(C)C)NC(=O)[C@H](CC(C)C)NC(=O)[C@H](CCCCN)NC(=O)[C@H](CCCNC(=N)N)NC(=O)[C@H](CC(N)=O)NC(=O)[C@H](CO)NC(=O)[C@H](Cc1c[nH]cn1)NC(=O)[C@H](C)NC(=O)[C@H](CCC(N)=O)NC(=O)[C@H](CCC(N)=O)NC(=O)[C@H](C)NC(=O)[C@H](CC(C)C)NC(=O)[C@H](CCC(N)=O)NC(=O)[C@H](CC(=O)O)NC(=O)[C@H](C)NC(=O)[C@H](CCCCN)NC(=O)[C@@H](NC(=O)[C@H](CCSC)NC(=O)[C@H](CCC(=O)O)NC(=O)[C@H](CC(C)C)NC(=O)[C@@H](NC(=O)[C@H](CCC(=O)O)NC(=O)[C@H](CCCNC(=N)N)NC(=O)[C@H](CC(C)C)NC(=O)[C@H](CC(C)C)NC(=O)[C@H](Cc1c[nH]cn1)NC(=O)[C@H](Cc1ccccc1)NC(=O)[C@@H](NC(=O)[C@H](CC(C)C)NC(=O)[C@H](CC(=O)O)NC(=O)[C@H](CC(C)C)NC(=O)[C@H](CO)NC(=O)[C@@H](NC(=O)[C@@H]1CCCN1C(=O)[C@@H]1CCCN1C(=O)[C@H](CCC(=O)O)NC(=O)[C@H](CCC(N)=O)NC(=O)[C@@H](N)CO)[C@@H](C)CC)[C@@H](C)O)C(C)C)[C@@H](C)O)C(=O)N[C@@H](C)C(N)=O [natural CRF]
[1]
  Stimulation of ACTH and β-endorphin secretion in vitro (in words): high potency
[1]; listed as isolated CRF
  Stimulation of ACTH and β-endorphin secretion in vitro (in words): stimulate ACTH and β-endorphin activies
[2]
  Stimulation of ACTH and β-END-LI secretion in vivo (in words): stimulate ACTH and β-endorphin activies

## CC[C@H](C)[C@H](NC(=O)[C@@H](NC(=O)[C@H](CC(=O)O)NC(=O)[C@H](CC(C)C)NC(=O)[C@H](CC(C)C)NC(=O)[C@H](CC(C)C)NC(=O)[C@H](CCCNC(=N)N)NC(=O)[C@H](CC(N)=O)NC(=O)[C@H](CC(N)=O)NC(=O)[C@H](C)NC(=O)[C@H](C)NC(=O)[C@H](CCC(N)=O)NC(=O)[C@H](CCC(N)=O)NC(=O)[C@H](CCCCN)NC(=O)[C@H](CCC(=O)O)NC(=O)[C@H](CCCCN)NC(=O)[C@H](CCC(=O)O)NC(=O)[C@H](CCC(N)=O)NC(=O)[C@H](CCCCN)NC(=O)[C@H](CCC(=O)O)NC(=O)[C@@H](NC(=O)[C@H](CCC(=O)O)NC(=O)[C@@H](NC(=O)[C@H](CCSC)NC(=O)[C@H](CCCCN)NC(=O)[C@H](CCCNC(=N)N)NC(=O)[C@H](CC(C)C)NC(=O)[C@H](CC(C)C)NC(=O)[C@H](CCC(=O)O)NC(=O)[C@H](CC(C)C)NC(=O)[C@H](CO)NC(=O)[C@H](CC(C)C)NC(=O)[C@H](CC(=O)O)NC(=O)[C@@H](NC(=O)[C@H](CO)NC(=O)[C@@H](NC(=O)[C@@H]1CCCN1C(=O)[C@@H]1CCCN1C(=O)CNC(=O)[C@@H]1CCC(=O)N1)[C@@H](C)CC)[C@@H](C)CC)[C@@H](C)CC)[C@@H](C)CC)[C@@H](C)O)C(N)=O [Sauvagine]
[4]
  Lowering blood pressure in mammals (reported): lowering blood pressure in mammals
[5]
  Stimulating the secretion of ACTH and β-endorphin (reported): stimulating the secretion of ACTH and β-endorphin

## CC[C@H](C)[C@H](NC(=O)[C@H](CC(=O)O)NC(=O)[C@H](CC(C)C)NC(=O)[C@H](CC(C)C)NC(=O)[C@H](CCCCN)NC(=O)[C@H](CCCNC(=N)N)NC(=O)[C@H](CC(N)=O)NC(=O)[C@H](CO)NC(=O)[C@H](Cc1c[nH]cn1)NC(=O)[C@H](C)NC(=O)[C@H](CCC(N)=O)NC(=O)[C@H](CCC(N)=O)NC(=O)[C@H](C)NC(=O)[C@H](CC(C)C)NC(=O)[C@H](CCC(N)=O)NC(=O)[C@H](CC(=O)O)NC(=O)[C@H](C)NC(=O)[C@H](CCCCN)NC(=O)[C@@H](NC(=O)[C@H](CCSC)NC(=O)[C@H](CCC(=O)O)NC(=O)[C@H](CC(C)C)NC(=O)[C@@H](NC(=O)[C@H](CCC(=O)O)NC(=O)[C@H](CCCNC(=N)N)NC(=O)[C@H](CC(C)C)NC(=O)[C@H](CC(C)C)NC(=O)[C@H](Cc1c[nH]cn1)NC(=O)[C@H](Cc1ccccc1)NC(=O)[C@@H](NC(=O)[C@H](CC(C)C)NC(=O)[C@H](CC(=O)O)NC(=O)[C@H](CC(C)C)NC(=O)[C@H](CO)NC(=O)[C@@H](NC(=O)[C@@H]1CCCN1C(=O)[C@@H]1CCCN1C(=O)[C@H](CCC(=O)O)NC(=O)[C@H](CCC(N)=O)NC(=O)[C@H](C)NC(C)=O)[C@@H](C)CC)[C@@H](C)O)C(C)C)[C@@H](C)O)C(=O)N[C@@H](C)C(N)=O [[Acetyl-Ala^1]-CRF]
[1]
  Stimulation of secretion of ACTH and β-END-LI (in words): stimulates the secretion of ACTH and β-END-LI
[3]
  Lowering of blood pressure (in words): very significant lowering of blood pressure

## CC[C@H](C)[C@H](NC(=O)[C@H](CCC(=O)O)NC(=O)[C@@H](NC(=O)[C@H](CCSC)NC(=O)[C@H](CCCCN)NC(=O)[C@H](CCCNC(=N)N)NC(=O)[C@H](CC(C)C)NC(=O)[C@H](CC(C)C)NC(=O)[C@H](CCC(=O)O)NC(=O)[C@H](CC(C)C)NC(=O)[C@H](CO)NC(=O)[C@H](CC(C)C)NC(=O)[C@H](CC(=O)O)NC(=O)[C@@H](NC(=O)[C@H](CO)NC(=O)[C@@H](NC(=O)[C@@H]1CCCN1C(=O)[C@@H]1CCCN1C(=O)CNC(=O)[C@@H]1CCC(=O)N1)[C@@H](C)CC)[C@@H](C)CC)[C@@H](C)CC)C(=O)N[C@@H](CCC(=O)O)C(=O)N[C@@H](CCCCN)C(=O)N[C@@H](CCC(N)=O)C(=O)N[C@@H](CCC(=O)O)C(=O)N[C@@H](CCCCN)C(=O)N[C@@H](CCC(=O)O)C(=O)N[C@@H](CCCCN)C(=O)N[C@@H](CCC(N)=O)C(=O)N[C@@H](CCC(N)=O)C(=O)N[C@@H](C)C(=O)N[C@@H](C)C(=O)N[C@@H](CC(N)=O)C(=O)N[C@@H](CC(N)=O)C(=O)N[C@@H](CCCNC(=N)N)C(=O)N[C@@H](CC(C)C)C(=O)N[C@@H](CC(C)C)C(=O)N[C@@H](CC(C)C)C(=O)N[C@@H](CC(=O)O)C(=O)N[C@@H](C)C(=O)N[C@@H](C)C(N)=O [[Ala^39, Ala^40]-sauvagine]
[1]
  Stimulation of secretion of ACTH and β-END-LI (in words): stimulates the secretion of ACTH and β-END-LI
[3]
  Lowering of blood pressure (in words): very significant lowering of blood pressure

## CC[C@H](C)[C@H](NC(=O)[C@H](CC(=O)O)NC(=O)[C@H](CC(C)C)NC(=O)[C@H](CC(C)C)NC(=O)[C@H](CCCCN)NC(=O)[C@H](CCCNC(=N)N)NC(=O)[C@H](CC(N)=O)NC(=O)[C@H](CO)NC(=O)[C@H](Cc1c[nH]cn1)NC(=O)[C@H](C)NC(=O)[C@H](CCC(N)=O)NC(=O)[C@H](CCC(N)=O)NC(=O)[C@H](C)NC(=O)[C@H](CC(C)C)NC(=O)[C@H](CCC(N)=O)NC(=O)[C@H](CC(=O)O)NC(=O)[C@H](C)NC(=O)[C@H](CCCCN)NC(=O)[C@@H](NC(=O)[C@H](CCSC)NC(=O)[C@H](CCC(=O)O)NC(=O)[C@H](CC(C)C)NC(=O)[C@@H](NC(=O)[C@H](CCC(=O)O)NC(=O)[C@H](CCCNC(=N)N)NC(=O)[C@H](CC(C)C)NC(=O)[C@H](CC(C)C)NC(=O)[C@H](Cc1c[nH]cn1)NC(=O)[C@H](Cc1ccccc1)NC(=O)[C@@H](NC(=O)[C@H](CC(C)C)NC(=O)[C@H](CC(=O)O)NC(=O)[C@H](CC(C)C)NC(=O)[C@H](CO)NC(=O)[C@@H](NC(=O)[C@@H]1CCCN1C(=O)[C@@H]1CCCN1)[C@@H](C)CC)[C@@H](C)O)C(C)C)[C@@H](C)O)C(=O)N[C@@H](C)C(N)=O [[des Ser^1 -Gln^2 -Glu^3]-CRF]
[1]
  Stimulation of secretion of ACTH and β-END-LI (in words): stimulates the secretion of ACTH and β-END-LI
[3]
  Lowering of blood pressure (in words): very significant lowering of blood pressure

## H-SQEPPISLDLTFHLLREVLE[Nle]TKADQLAQQAYSNRKLLDIA-NH2 [[Nle^21, Tyr^32]-CRF]
[1]
  Stimulation of secretion of ACTH and β-END-LI (in words): stimulates the secretion of ACTH and β-END-LI
[3]
  Lowering of blood pressure (in words): very significant lowering of blood pressure to a greater extent than CRF
